According to publication PMC7745062 (Acta Pharmaceutica Sinica. B, 2020):
Entries after “also recorded” stand apart in the source; their conditions may differ. Each block holds one compound with its values, some of them ahead of it.

Experiments:
[1] = Metabolic stability in rat liver microsomes; type: in vitro ADME; conditions: for half-life at 0.1 μmol/L: rat, pH 7.4
[2] = Metabolic stability in rat liver microsomes; type: in vitro ADME; conditions: RLM t1/2 (elimination half-life)
PDE10A (449–770) = PDE10A (449–770) (Homo sapiens, UniProt Q9Y233); assay: In vitro enzymatic activity assay
[3] = test system: monocrotaline (MCT)-induced PAH rat model; assay: Monocrotaline; type: in vivo; conditions: for mean pulmonary artery pressure (mPAP) / right ventricle hypertrophy index (RVHI%) / wall thickness percentage (WT%): p.o. for 3 weeks, 14·3HCl 2.5 mg/kg, tadalafil 5.0 mg/kg, vs model group
[4] = In vivo pharmacokinetics of 14·3HCl in rats; set-up: species or system Sprague–Dawley rats
[5] = Solubility in deionized water; type: physicochemical; conditions: pH 7, water
[6] = Reactivity with cysteine in aqueous phase; type: physicochemical; conditions: Cys ratio 1:1, 1H NMR in D2O against time
KM mice = assay: Acute toxicity after single oral dose in mice; type: in vivo
[7] = target: T1, human ether-à-go-go-related gene (hERG) potassium channel (Homo sapiens, UniProt Q12809)
[8] = target: hERG potassium channel (versus PDE10A) (Homo sapiens, UniProt Q12809); assay: in vitro
[9] = target: T1, human ether-à-go-go-related gene (hERG) potassium channel; assay: cell-based; conditions: hERG IC50, peak tail current inhibition, 2−3 cells per concentration
PDE1B (10–487) = PDE1B (10–487) (Homo sapiens, UniProt Q01064); assay: In vitro enzymatic activity assay, PDE1B
PDE2A (580–919) = PDE2A (580–919) (Homo sapiens, UniProt O00408); assay: In vitro enzymatic activity assay, PDE2A
PDE3A (679–1087) = PDE3A (679–1087) (Homo sapiens, UniProt Q14432); assay: In vitro enzymatic activity assay, PDE3A
PDE4D2 (86–413) = PDE4D2 (86–413) (Homo sapiens, UniProt Q08499); assay: In vitro enzymatic activity assay, PDE4D2
PDE5A1 (535–860) = PDE5A1 (535–860) (Homo sapiens, UniProt O76074); assay: In vitro enzymatic activity assay, PDE5A1
PDE7A1 (130–482) = PDE7A1 (130–482) (Homo sapiens, UniProt Q13946); assay: In vitro enzymatic activity assay, PDE7A1
PDE8A1 (480–820) = PDE8A1 (480–820) (Homo sapiens, UniProt O60658); assay: In vitro enzymatic activity assay, PDE8A1
PDE9A2 (181–506) = PDE9A2 (181–506) (Homo sapiens, UniProt O76083); assay: In vitro enzymatic activity assay, PDE9A2
[10] = male, Sprague-Dawley, rat, plasma, iv, 2.5 mg/kg
[11] = male, Sprague-Dawley, rat, plasma, po, 10 mg/kg

PDE8A1 (480–820), sequence (O60658 480-820): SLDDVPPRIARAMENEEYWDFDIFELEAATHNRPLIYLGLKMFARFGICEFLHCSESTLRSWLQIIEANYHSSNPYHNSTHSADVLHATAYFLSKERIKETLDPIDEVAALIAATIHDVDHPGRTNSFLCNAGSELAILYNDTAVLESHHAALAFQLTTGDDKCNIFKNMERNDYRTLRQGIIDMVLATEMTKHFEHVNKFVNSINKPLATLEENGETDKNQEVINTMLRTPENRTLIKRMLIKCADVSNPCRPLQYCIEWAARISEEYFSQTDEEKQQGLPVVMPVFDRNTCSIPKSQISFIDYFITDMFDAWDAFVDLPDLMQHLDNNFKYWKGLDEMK
PDE7A1 (130–482), sequence (Q13946 130-482): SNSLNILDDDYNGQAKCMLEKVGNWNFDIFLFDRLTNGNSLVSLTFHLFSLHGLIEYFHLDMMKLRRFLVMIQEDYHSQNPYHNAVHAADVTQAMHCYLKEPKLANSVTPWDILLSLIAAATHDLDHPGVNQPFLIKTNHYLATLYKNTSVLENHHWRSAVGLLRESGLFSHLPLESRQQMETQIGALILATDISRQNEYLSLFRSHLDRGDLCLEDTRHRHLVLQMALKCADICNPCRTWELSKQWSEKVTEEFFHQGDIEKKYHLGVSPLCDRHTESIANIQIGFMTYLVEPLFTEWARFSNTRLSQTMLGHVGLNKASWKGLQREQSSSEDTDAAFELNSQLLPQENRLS
PDE10A (449–770), sequence (Q9Y233 715-1036): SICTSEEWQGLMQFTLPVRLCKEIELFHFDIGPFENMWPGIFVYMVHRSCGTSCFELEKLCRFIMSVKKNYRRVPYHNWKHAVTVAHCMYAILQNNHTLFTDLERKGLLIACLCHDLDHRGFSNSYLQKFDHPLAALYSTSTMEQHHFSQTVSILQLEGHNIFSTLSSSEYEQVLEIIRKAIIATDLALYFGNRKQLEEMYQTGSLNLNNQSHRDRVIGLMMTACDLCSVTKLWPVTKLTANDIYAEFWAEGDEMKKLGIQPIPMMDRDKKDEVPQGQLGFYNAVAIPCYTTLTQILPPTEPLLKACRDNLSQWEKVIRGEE
PDE1B (10–487), sequence (Q01064 10-487): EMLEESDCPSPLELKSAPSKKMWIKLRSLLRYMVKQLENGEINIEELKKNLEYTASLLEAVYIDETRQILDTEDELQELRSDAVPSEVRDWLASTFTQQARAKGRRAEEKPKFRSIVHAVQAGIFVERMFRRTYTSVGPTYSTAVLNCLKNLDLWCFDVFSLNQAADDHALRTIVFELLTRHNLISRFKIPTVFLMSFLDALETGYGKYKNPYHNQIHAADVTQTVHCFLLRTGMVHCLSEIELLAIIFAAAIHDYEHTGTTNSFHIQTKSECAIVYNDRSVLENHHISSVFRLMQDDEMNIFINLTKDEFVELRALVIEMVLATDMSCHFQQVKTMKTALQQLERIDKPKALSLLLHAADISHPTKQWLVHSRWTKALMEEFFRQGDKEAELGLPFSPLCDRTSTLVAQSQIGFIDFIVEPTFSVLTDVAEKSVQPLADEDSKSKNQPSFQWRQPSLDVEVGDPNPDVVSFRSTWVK
PDE4D2 (86–413), sequence (Q08499 388-715): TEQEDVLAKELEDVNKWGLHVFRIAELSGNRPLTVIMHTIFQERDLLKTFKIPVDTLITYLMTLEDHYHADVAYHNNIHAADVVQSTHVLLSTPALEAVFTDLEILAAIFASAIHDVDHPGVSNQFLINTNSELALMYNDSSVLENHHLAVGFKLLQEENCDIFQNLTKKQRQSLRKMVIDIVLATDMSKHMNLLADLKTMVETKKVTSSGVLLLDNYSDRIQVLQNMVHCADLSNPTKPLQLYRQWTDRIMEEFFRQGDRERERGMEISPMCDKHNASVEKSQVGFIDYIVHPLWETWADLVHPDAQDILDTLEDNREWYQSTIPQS
T1 sequence (Q12809 whole entry): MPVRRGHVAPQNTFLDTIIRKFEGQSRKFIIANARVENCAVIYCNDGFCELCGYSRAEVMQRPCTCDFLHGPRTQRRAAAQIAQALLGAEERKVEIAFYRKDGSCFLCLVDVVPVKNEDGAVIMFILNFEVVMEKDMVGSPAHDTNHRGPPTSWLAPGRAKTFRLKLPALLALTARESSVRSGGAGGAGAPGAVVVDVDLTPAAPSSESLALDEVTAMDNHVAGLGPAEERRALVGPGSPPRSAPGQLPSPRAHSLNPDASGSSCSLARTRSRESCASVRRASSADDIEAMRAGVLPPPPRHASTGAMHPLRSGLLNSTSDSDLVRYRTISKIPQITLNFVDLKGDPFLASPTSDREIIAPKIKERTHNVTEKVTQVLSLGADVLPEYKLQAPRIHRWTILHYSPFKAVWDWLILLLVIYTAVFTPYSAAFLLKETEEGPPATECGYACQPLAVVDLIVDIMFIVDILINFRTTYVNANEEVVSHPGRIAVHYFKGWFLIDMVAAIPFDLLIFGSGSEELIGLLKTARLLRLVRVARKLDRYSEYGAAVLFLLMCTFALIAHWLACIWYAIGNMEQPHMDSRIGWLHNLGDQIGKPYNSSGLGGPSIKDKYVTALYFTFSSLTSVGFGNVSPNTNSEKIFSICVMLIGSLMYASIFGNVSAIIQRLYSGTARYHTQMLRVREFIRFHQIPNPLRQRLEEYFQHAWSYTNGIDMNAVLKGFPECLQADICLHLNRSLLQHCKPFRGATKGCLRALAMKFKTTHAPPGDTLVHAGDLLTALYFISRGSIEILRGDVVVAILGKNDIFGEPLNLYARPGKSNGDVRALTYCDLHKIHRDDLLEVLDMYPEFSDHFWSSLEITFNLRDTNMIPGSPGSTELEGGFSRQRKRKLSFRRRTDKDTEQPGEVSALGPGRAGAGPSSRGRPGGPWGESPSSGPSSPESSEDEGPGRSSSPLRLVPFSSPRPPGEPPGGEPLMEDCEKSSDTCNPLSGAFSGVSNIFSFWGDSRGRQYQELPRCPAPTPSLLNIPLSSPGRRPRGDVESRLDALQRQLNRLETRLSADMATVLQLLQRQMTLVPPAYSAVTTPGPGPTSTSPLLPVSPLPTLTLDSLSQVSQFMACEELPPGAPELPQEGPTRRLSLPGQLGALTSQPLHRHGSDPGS
PDE3A (679–1087), sequence (Q14432 679-1087): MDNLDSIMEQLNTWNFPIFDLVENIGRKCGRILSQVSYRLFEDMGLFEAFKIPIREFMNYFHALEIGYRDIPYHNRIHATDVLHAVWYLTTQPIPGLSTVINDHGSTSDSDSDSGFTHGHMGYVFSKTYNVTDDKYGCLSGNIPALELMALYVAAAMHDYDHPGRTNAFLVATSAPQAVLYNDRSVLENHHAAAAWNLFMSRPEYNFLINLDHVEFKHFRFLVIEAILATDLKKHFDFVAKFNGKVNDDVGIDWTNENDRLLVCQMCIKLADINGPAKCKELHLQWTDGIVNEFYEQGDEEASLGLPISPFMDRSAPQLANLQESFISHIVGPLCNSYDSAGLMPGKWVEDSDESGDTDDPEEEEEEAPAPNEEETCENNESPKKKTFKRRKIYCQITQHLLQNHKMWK
PDE2A (580–919), sequence (O00408 580-919): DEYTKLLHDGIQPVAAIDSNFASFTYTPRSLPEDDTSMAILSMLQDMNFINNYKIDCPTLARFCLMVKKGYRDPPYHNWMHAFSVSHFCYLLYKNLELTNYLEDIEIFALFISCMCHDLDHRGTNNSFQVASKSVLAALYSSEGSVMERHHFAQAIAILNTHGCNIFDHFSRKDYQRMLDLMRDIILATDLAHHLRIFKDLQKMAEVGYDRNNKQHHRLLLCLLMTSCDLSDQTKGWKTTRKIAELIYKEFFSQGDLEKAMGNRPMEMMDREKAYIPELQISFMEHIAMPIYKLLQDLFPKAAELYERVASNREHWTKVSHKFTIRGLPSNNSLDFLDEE
PDE9A2 (181–506), sequence (O76083 241-566): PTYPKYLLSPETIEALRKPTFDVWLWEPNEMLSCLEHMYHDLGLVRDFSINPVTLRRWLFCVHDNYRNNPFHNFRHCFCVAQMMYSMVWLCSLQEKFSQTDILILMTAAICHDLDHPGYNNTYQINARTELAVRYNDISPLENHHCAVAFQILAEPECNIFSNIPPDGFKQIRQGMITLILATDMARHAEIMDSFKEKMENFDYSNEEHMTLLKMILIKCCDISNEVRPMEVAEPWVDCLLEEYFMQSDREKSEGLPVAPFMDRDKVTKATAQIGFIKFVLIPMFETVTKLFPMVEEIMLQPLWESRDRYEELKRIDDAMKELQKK

CLint (intrinsic body clearance) [1]: 198.1 mL/(min·g·protein)
half-life at 0.1 μmol/L [1]: 11 min
Structure (SMILES): Cc1ccc2c(c1)nc(/C=C/c1cccc3cccnc13)n2-c1cccc(CN2CCN(C)CC2)c1 [Compound 12, (E)-8-(2-(5-Methyl-1-(3-((4-methylpiperazin-1-yl)methyl)phenyl)-1H-benzo[d]imidazole-2-yl)vinyl) quinoline]

half-life at 1.5 μmol/L [2]: 17.4 min
enhancement of PDE10A inhibition relative to compound 2 (PDE10A (449–770); C=C bond instead of C–C single bond): 3 fold
Structure (SMILES): Cc1ccc2c(c1)nc(/C=C/c1cccc3cccnc13)n2-c1ccccc1 [Compound 4, (E)-8-(2-(5-Methyl-1-phenyl-1H-benzo[d]imidazol-2-yl)vinyl)quinoline]

CLint (intrinsic body clearance) [1]: 127.7 mL/(min·g·protein)
half-life at 0.1 μmol/L [1]: 16 min
Structure (SMILES): Cc1ccc2c(c1)nc(/C=C/c1cccc3cccnc13)n2-c1cccc(OCCCN2CCOCC2)c1.Cl [13·3HCl, (E)-4-(3-(3-(5-Methyl-2-(2-(quinolin-8-yl)vinyl)-1H-benzo[d]imidazole-1-yl)phenoxy)propyl)morpholine hydrochloride]

CLint (intrinsic body clearance) [1]: 1390 mL/(min·g·protein)
half-life at 0.1 μmol/L [1]: 1.5 min
Structure (SMILES): Cc1ccc2c(c1)nc(/C=C/c1cccc3cccnc13)n2-c1cccc(S(=O)(=O)N2CCN(C)CC2)c1 [Compound 11, (E)-8-(2-(5-Methyl-1-(3-((4-methylpiperazin-1-yl)sulfonyl)phenyl)-1H-benzo[d]imidazole-2-yl)vinyl) quinoline]

CLint (intrinsic body clearance) [1]: 999.4 mL/(min·g·protein)
half-life at 0.1 μmol/L [1]: 2.1 min
Structure (SMILES): COc1cccc(-n2c(/C=C/c3cccc4cccnc34)nc3cc(C)ccc32)c1 [Compound 10, (E)-8-(2-(1-(3-Methoxyphenyl)-5-methyl-1H-benzo[d]imidazole-2-yl)vinyl)quinoline]

Structure (SMILES): CN1CC(=O)N2[C@H](c3ccc4c(c3)OCO4)c3[nH]c4ccccc4c3C[C@@H]2C1=O [tadalafil, reference compound]
mean pulmonary artery pressure (mPAP) [3]: decreased
right ventricle hypertrophy index (RVHI%) [3]: decreased
wall thickness percentage (WT%) [3]: decreased

Structure (SMILES): Cc1ccc2c(c1)nc(/C=C/c1cccc3cccnc13)n2-c1cccc(OCCCN2CCN(C)CC2)c1.Cl [Compound 14·3HCl, (E)-8-(2-(5-Methyl-1-(3-(3-(4-methylpiperazin-1-yl)propoxy)phenyl)-1H-benzo[d]imidazole-2-yl)vinyl)quinoline hydrochloride]
CLint (intrinsic body clearance) [1]: 85.1 mL/(min·g·protein)
half-life at 0.1 μmol/L [1]: 25 min
AUC(0-inf) [4, 10]: 1820 ± 297 ng·h/mL
AUC(0-t) [4, 10]: 1670 ± 184 ng·h/mL
Cmax [4, 10]: 230 ± 50 ng/mL
MRT last [4, 10]: 378 ± 48 min
Tmax [4, 10]: 24 ± 24 min
clearance [4, 10]: 23.3 mL/min/kg
half-life [4, 10]: 402 ± 90 min
AUC(0-inf) [4, 11]: 3550 ± 1010 ng·h/mL
AUC(0-t) [4, 11]: 3310 ± 812 ng·h/mL
Cmax [4, 11]: 272 ± 25 ng/mL
MRT last [4, 11]: 504 ± 42 min
Tmax [4, 11]: 360 ± 120 min
half-life [4, 11]: 312 ± 54 min
bioavailability, fold higher than A ([4]; rats, oral): ~20 fold
solubility [5]: 4700 µg/mL
reactivity of C=C bridge with cysteine [6]: insensitive to react with cysteine
acute toxicity (KM mice; oral administration): no obvious acute toxicity
dose well tolerated (KM mice; single oral dose): ≤ 1000 mg/kg
improvement of PAH medical indicators ([3]; 14·3HCl 2.5 mg/kg p.o. compared with tadalafil 5.0 mg/kg p.o.): comparable to tadalafil; also recorded: significantly ameliorating these PAH medical indicators; also recorded: significantly improved typical disease medical indicators
mean pulmonary artery pressure (mPAP) [3]: decreased
right ventricle hypertrophy index (RVHI%) [3]: decreased
wall thickness percentage (WT%) [3]: decreased
safety margin between hERG IC50 and plasma peak concentration (Cmax) [7]: 36 fold
selectivity ratio [8]: 1600
IC50 [9]: 4.5 µM
IC50 (PDE1B (10–487)): > 10 µM
Selectivity fold (PDE1B (10–487); IC50(PDE1B)/IC50(PDE10A2)): >3500 fold
IC50 (PDE2A (580–919)): > 10 µM
Selectivity fold (PDE2A (580–919); IC50(PDE2A)/IC50(PDE10A2)): >3500 fold
IC50 (PDE3A (679–1087)): > 10 µM
Selectivity fold (PDE3A (679–1087); IC50(PDE3A)/IC50(PDE10A2)): >3500 fold
IC50 (PDE4D2 (86–413)): > 10 µM
Selectivity fold (PDE4D2 (86–413); IC50(PDE4D2)/IC50(PDE10A2)): >3500 fold
IC50 (PDE5A1 (535–860)): > 10 µM
Selectivity fold (PDE5A1 (535–860); IC50(PDE5A1)/IC50(PDE10A2)): >3500 fold
IC50 (PDE7A1 (130–482)): > 10 µM
Selectivity fold (PDE7A1 (130–482); IC50(PDE7A1)/IC50(PDE10A2)): >3500 fold
IC50 (PDE8A1 (480–820)): > 10 µM
Selectivity fold (PDE8A1 (480–820); IC50(PDE8A1)/IC50(PDE10A2)): >3500 fold
IC50 (PDE9A2 (181–506)): > 10 µM
Selectivity fold (PDE9A2 (181–506); IC50(PDE9A2)/IC50(PDE10A2)): >3500 fold
selectivity over other PDE subtypes (PDE10A (449–770); against other PDE families): > 3500 fold
